Data: ChEMBL document CHEMBL1201862, “PubChem BioAssay data set” (2004)
Values joined by “and” are separate entries in the source; they are usually repeats but may differ in a detail not shown here. Equal entries are not always repeated.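 Method: 48-hour compound exposure of cells in 96-well plates, five concentrations, linear interpolation of endpoints. Abbreviation: GI50, concentration required for 50% inhibition of growth.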 Active and inactive are the calls of the source. Cut-off read from the data, not from the text of the source: active = GI50 up to about 1.1 µM and inactive = higher. Where a SMILES comes first, the peptide text is derived from it. The star is where a group is joined. Cbz = O=C(OCc1ccccc1)*

What was measured:
Experiment in all cases: NCI tumour cell line growth inhibition, 48 h
SF-295 = test system: SF-295
SF-268 = test system: SF-268
LOX IMVI = test system: LOX IMVI
OVCAR-3 = test system: OVCAR-3
U-251 = test system: U-251
RXF 393 = test system: RXF 393
SW-620 = test system: SW-620
Malme-3M = test system: Malme-3M
SK-OV-3 = test system: SK-OV-3
NCI-H226 = test system: NCI-H226
IGROV-1 = test system: IGROV-1
MCF7 = test system: MCF7
SK-MEL-5 = test system: SK-MEL-5
NCI-H23 = test system: NCI-H23
M14 = test system: M14
TK-10 = test system: TK-10
KM12 = test system: KM12
SN12C = test system: SN12C
NCI-H460 = test system: NCI-H460
K562 = test system: K562

Row | SMILES | GI50 (SF-295) | GI50 (SF-268) | GI50 (LOX IMVI) | GI50 (OVCAR-3) | GI50 (U-251) | GI50 (RXF 393) | GI50 (SW-620) | GI50 (Malme-3M) | GI50 (SK-OV-3) | GI50 (NCI-H226) | GI50 (IGROV-1) | GI50 (MCF7) | GI50 (SK-MEL-5) | GI50 (NCI-H23) | GI50 (M14) | GI50 (TK-10) | GI50 (KM12) | GI50 (SN12C) | GI50 (NCI-H460) | GI50 (K562)
1 | COc1ccc(C(OCC2OC(n3cc(C)c(=O)[nH]c3=O)CC2n2cc(Cn3cc(F)c(=O)[nH]c3=O)nn2)(c2ccccc2)c2ccccc2)cc1 (configuration not stated) | 3.26 µM (inactive) | 5.06 µM (inactive) | 4.38 µM (inactive) | 5.26 µM (inactive) | 3.78 µM (inactive) | 10.6 µM (inactive) | 3.72 µM (inactive) | 9.04 µM (inactive) | 5.3 µM (inactive) | 4.42 µM (inactive) | 7.96 µM (inactive) | 3.54 µM (inactive) | 7.82 µM (inactive) | 8.28 µM (inactive) | 4.58 µM (inactive) | 13.6 µM (inactive) | 4.25 µM (inactive) | 5.71 µM (inactive) | – | –
2 | COc1ccc(-n2c(C)nc3ccc(NC4OCC(O)C(O)C4O)cc3c2=O)cc1 (configuration not stated) | > 100 µM (inactive) | > 100 µM (inactive) | 18.8 µM (inactive) and 22.5 µM (inactive) | > 100 µM (inactive) | 60 µM (inactive) and 49.2 µM (inactive) | 22.7 µM (inactive) and 30.1 µM (inactive) | 27.1 µM (inactive) and 36.5 µM (inactive) | 57.7 µM (inactive) and 99.3 µM (inactive) | – | 37.3 µM (inactive) and 37.6 µM (inactive) | > 100 µM (inactive) and 55.1 µM (inactive) | 43.5 µM (inactive) and 48.4 µM (inactive) | > 100 µM (inactive) | 56.6 µM (inactive) and 38.3 µM (inactive) | – | > 100 µM (inactive) | – | 38.1 µM (inactive) and 27.2 µM (inactive) | 72.9 µM (inactive) and 40.5 µM (inactive) | 31.3 µM (inactive) and 30.8 µM (inactive)
3 | O=C(Nc1ccc2[nH]c(C(=O)N3CC(CCl)c4ccc([N+](=O)[O-])cc43)cc2c1)c1cc2ccccc2o1 (configuration not stated) | 716 µM (inactive) | > 1100 µM (inactive) | > 1100 µM (inactive) | > 1100 µM (inactive) | > 1100 µM (inactive) | > 1100 µM (inactive) | > 1100 µM (inactive) | > 1100 µM (inactive) | > 1100 µM (inactive) | > 1100 µM (inactive) | > 1100 µM (inactive) | > 1100 µM (inactive) | > 1100 µM (inactive) | > 1100 µM (inactive) | > 1100 µM (inactive) | – | > 1100 µM (inactive) | > 1100 µM (inactive) | 98.4 µM (inactive) | –
4 | O=c1cc(N2CCOCC2)[nH]c(=O)n1-c1cccc(Cl)c1 | > 100 µM (inactive) | > 100 µM (inactive) | > 100 µM (inactive) | > 100 µM (inactive) | > 100 µM (inactive) | > 100 µM (inactive) | > 100 µM (inactive) | > 100 µM (inactive) | > 100 µM (inactive) | > 100 µM (inactive) | > 100 µM (inactive) | > 100 µM (inactive) | – | > 100 µM (inactive) | > 100 µM (inactive) | > 100 µM (inactive) | > 100 µM (inactive) | > 100 µM (inactive) | > 100 µM (inactive) | > 100 µM (inactive)
5 | Nc1nc(Cl)cc(OCC2(CO)CCCCC2)n1 | > 100 µM (inactive) | > 100 µM (inactive) | > 100 µM (inactive) | > 100 µM (inactive) | 86.5 µM (inactive) | 63.7 µM (inactive) | > 100 µM (inactive) | > 100 µM (inactive) | – | > 100 µM (inactive) | > 100 µM (inactive) | 50.5 µM (inactive) | 40.9 µM (inactive) | > 100 µM (inactive) | – | > 100 µM (inactive) | – | > 100 µM (inactive) | > 100 µM (inactive) | > 10 µM (inactive)
6 | S=C(/N=c1\sc(Nc2ccc(Cl)cc2)nc2sc3c(c12)CCN(N1CCc2c(sc4nc(Nc5ccc(Cl)cc5)s/c(=N\C(=S)Nc5ccc(Cl)cc5)c24)C1)C3)Nc1ccc(Cl)cc1 | 38.7 µM (inactive) | > 100 µM (inactive) | – | 42.3 µM (inactive) | 25.1 µM (inactive) | 18.9 µM (inactive) | 38.8 µM (inactive) | > 100 µM (inactive) | 27.7 µM (inactive) | 78.2 µM (inactive) | 35.7 µM (inactive) | 40.6 µM (inactive) | – | 53.7 µM (inactive) | 60 µM (inactive) | 44.6 µM (inactive) | – | 19.2 µM (inactive) | 33.8 µM (inactive) | –
7 | CN(Cc1cnc2nc(N)nc(N)c2n1)c1ccc(C(=O)N[C@@H](CCS(=O)(=O)O)C(=O)O)cc1 | 0.0766 µM (active) | 0.151 µM (active) | 0.0526 µM (active) | > 49.5 µM (inactive) | > 100 µM (inactive) | 0.0611 µM (active) | 0.0824 µM (active) | – | – | 51.5 µM (inactive) | 0.431 µM (active) | 0.127 µM (active) | 0.541 µM (active) | 0.458 µM (active) | 0.111 µM (active) | – | 1.64 µM (inactive) | > 100 µM (inactive) | 0.169 µM (active) | > 100 µM (inactive)
8 | CC(C)(Oc1ccccc1)C(=O)Sc1c(-c2ccccc2)c(=O)n(-c2ccccc2)c(=S)n1-c1ccccc1 | 59.8 µM (inactive) | 26.9 µM (inactive) | 49.5 µM (inactive) | 32 µM (inactive) | 21.6 µM (inactive) | 26.4 µM (inactive) | 88.3 µM (inactive) | 95.5 µM (inactive) | 26.7 µM (inactive) | 31.1 µM (inactive) | 22.6 µM (inactive) | 46.6 µM (inactive) | – | > 100 µM (inactive) | 27 µM (inactive) | 92.5 µM (inactive) | 31.8 µM (inactive) | 51.3 µM (inactive) | 27.3 µM (inactive) | 41.4 µM (inactive)
9 | C/C=C(\C)C(=O)OC1C(C)=C2C(C1OC(=O)CCCC)C(C)(OC(C)=O)CC(OC(=O)CCCC)C1(O)C2OC(=O)C1(C)O (configuration not stated) | 0.802 µM (active) | – | 0.439 µM (active) | 0.925 µM (active) | 0.605 µM (active) | 0.598 µM (active) | 0.501 µM (active) | – | 4.11 µM (inactive) | 1.19 µM (inactive) | 6.85 µM (inactive) | 0.394 µM (active) | 1.73 µM (inactive) | 1.14 µM (inactive) | 0.452 µM (active) | 13 µM (inactive) | 0.776 µM (active) | 2.59 µM (inactive) | 0.792 µM (active) | 2.2 µM (inactive)
10 | Cc1ccc(S(=O)(=O)N/N=C2\C=C[C@]3(CC2)C(=O)N(C)c2ccccc23)cc1 | > 100 µM (inactive) | > 100 µM (inactive) | > 100 µM (inactive) | > 100 µM (inactive) | > 100 µM (inactive) | > 100 µM (inactive) | > 100 µM (inactive) | – | > 100 µM (inactive) | 69 µM (inactive) | > 100 µM (inactive) | > 100 µM (inactive) | > 100 µM (inactive) | > 100 µM (inactive) | > 100 µM (inactive) | – | > 100 µM (inactive) | > 100 µM (inactive) | > 100 µM (inactive) | > 100 µM (inactive)
11 | CN(C)CCO/N=C1/C=C2CC[C@H]3[C@@H]4CC[C@H](O)[C@@]4(C)CC[C@@H]3[C@@]2(C)CC1 | 13.9 µM (inactive) | 7.48 µM (inactive) | 15.9 µM (inactive) | 16.6 µM (inactive) | 10.1 µM (inactive) | 9.59 µM (inactive) | 10.7 µM (inactive) | – | 8.67 µM (inactive) | 1.23 µM (inactive) | 6.95 µM (inactive) | 22.8 µM (inactive) | 8.71 µM (inactive) | 11.4 µM (inactive) | 8.26 µM (inactive) | 11.1 µM (inactive) | 10.8 µM (inactive) | 11.7 µM (inactive) | 7.11 µM (inactive) | 6.22 µM (inactive)
12 | CC(C)(O)C1CC[C@]2(C)CC[C@]3(C)[C@H](CC[C@@H]4[C@@]5(C)CC[C@H](O)C(C)(C)[C@@H]5CC[C@]43C)[C@@H]12 (some centres not stated) | 25.4 µM (inactive) | 31 µM (inactive) | – | 24.1 µM (inactive) | 35.6 µM (inactive) | 33.6 µM (inactive) | – | 28.6 µM (inactive) | 23.1 µM (inactive) | 44.4 µM (inactive) | 33.3 µM (inactive) | 34.6 µM (inactive) | 26 µM (inactive) | 35.2 µM (inactive) | 36.3 µM (inactive) | 27.5 µM (inactive) | 34.4 µM (inactive) | 81.3 µM (inactive) | 34.8 µM (inactive) | 82.6 µM (inactive)
13 | O=C(NC1=C(Cl)C(=O)c2ccccc2C1=O)c1ccccc1 | 36 µM (inactive) | 64.1 µM (inactive) | – | 19.1 µM (inactive) | 27.8 µM (inactive) | 18.9 µM (inactive) | 17.3 µM (inactive) | 16.9 µM (inactive) | – | 24.5 µM (inactive) | 21.8 µM (inactive) | 19.2 µM (inactive) | 27.5 µM (inactive) | 23.8 µM (inactive) | 50.8 µM (inactive) | 23 µM (inactive) | 32.1 µM (inactive) | 38.1 µM (inactive) | 40.3 µM (inactive) | 21.8 µM (inactive)
14 | CCOC(=O)C(CC(=O)OC)NC(=O)C(CC(=O)OC)NC(=O)C(CC(=O)OC)NC(=O)C(CC(=O)OC)NC(=O)OCc1ccccc1 (configuration not stated) (Cbz-D(OMe)D(OMe)D(OMe)D(OMe)-OEt; configuration not given here) | – | – | – | – | > 100 µM (inactive) | > 100 µM (inactive) | > 100 µM (inactive) | > 100 µM (inactive) | – | > 100 µM (inactive) | > 100 µM (inactive) | > 100 µM (inactive) | > 100 µM (inactive) | > 100 µM (inactive) | > 100 µM (inactive) | > 100 µM (inactive) | > 100 µM (inactive) | > 100 µM (inactive) | > 100 µM (inactive) | > 100 µM (inactive)
